Assay results: US20260000689A1, “TARGETING CREB-HEPARAN SULFATE-FGF PATHWAY FOR CANCER TREATMENT” (UNIVERSITY OF SOUTH FLORIDA, priority 2022, published 2026)
Entries after “also recorded” stand apart in the source; their conditions may differ.

Assays:
[1] = tested on: Myc-CaP cells with EXT1-overexpression; test: s.c. xenograft prostate cancer mouse model, EXT1-overexpressing Myc-CaP cells; format: in vivo, FVB/NJ mice
From the text: (§1) FIG. 7A-FIG. 7F show inhibition of CREB or HS attenuates prostate cancer growth. […] 7A) and HS (FIG. 7B) in Myc-CaP cells, and the in vitro cell growth (FIG. 7C) and migration (FIG. 7D).
(§2) FIG. 22E and FIG. 22F show myc-Cap cells in vivo for KG-501 (FIG. 22E) and Surfen (FIG. 22F). FIG. 22G and FIG. 22H show Ext1-overexpressing myc-Cap cells in vivo for KG-501 (FIG. 22G) and Surfen (FIG. 22H).

Myc-CaP cells [2] = test: Colony formation of EXT1-overexpressing vs EV MyC-CaP cells with FGFR inhibitor; format: cell-based, mice; conditions: 1, 5, 10 μm AZD4547 vs DMSO
Myc-CaP cells [3] = test: s.c. xenograft prostate cancer mouse model, Myc-CaP cells; format: in vivo, FVB/NJ mice; conditions: without EXT1-overexpression
From the text: as §1, §2

Myc-CaP cells [4] = test: In vitro cell growth of Myc-CaP cells; format: cell-based, mice
From the text: as §1, §2

EXT1 mRNA = test: Expression of EXT1 mRNA in Myc-CaP cells; format: cell-based, mice
From the text: as §1, §2

Myc-CaP cells [5] = test: Cell migration of Myc-CaP cells; format: cell-based, mice
From the text: as §1, §2

HS = test: Expression of HS (heparan sulfate staining) in Myc-CaP cells; format: cell-based, mice
From the text: as §1, §2

SMILES	growth of EXT1-overexpressing Myc-CaP cells in s.c. xenograft prostate cancer mouse model [1]	resistance of EXT1-overexpressing cells to FGFR inhibitor in colony formation (Myc-CaP cells [2])	growth of Myc-CaP cells in s.c. xenograft prostate cancer mouse model (Myc-CaP cells [3])	in vitro cell growth (Myc-CaP cells [4])	expression of EXT1 mRNA (EXT1 mRNA)	migration (Myc-CaP cells [5])	expression of HS (HS)	growth of Myc-CaP cells in s.c. xenograft prostate cancer mouse model (Myc-CaP cells [3]; listed as surfen)
COc1cc(CCc2cc(NC(=O)c3ccc(N4C[C@@H](C)N[C@@H](C)C4)cc3)n[nH]2)cc(OC)c1 [AZD4547]	blocks EXT1-overexpression-enhanced prostate cancer growth in vivo	more resistant						
O=C(Nc1ccc(Cl)cc1)c1cc2ccccc2cc1OP(=O)(O)O [KG-501, 2-naphthol-AS-E-phosphate]	efficiently inhibited; also recorded: attenuated prostate cancer growth in vivo		efficiently inhibited; also recorded: attenuated prostate cancer growth in vivo	does-dependently inhibited	does-dependently inhibited	does-dependently inhibited	does-dependently inhibited	
Cc1cc(N)c2cc(NC(=O)Nc3ccc4nc(C)cc(N)c4c3)ccc2n1 [Surfen, bis-2-methyl-4-amino-quinolyl-6-carbamide]	efficiently inhibited; also recorded: attenuated prostate cancer growth in vivo		efficiently inhibited; also recorded: attenuated prostate cancer growth in vivo					blocked PCa growth
